A word on the IC50: it is the point on the concentration scale where inhibition reaches its midpoint. Usually inhibition stands for the relative decrease from the control value, in per cent.

We go through 9 compounds from ChEMBL document CHEMBL1156024, “The first Hes1 dimer inhibitors from natural products” (Bioorg Med Chem Lett, 2009).

The source made the active and inactive calls. The calls are words filed in the database; no cut-off is given here.

Assay [1] concerns the target T1, Transcription factor HES-1 (Mus musculus, UniProt P35428).
T1 sequence (P35428 whole entry): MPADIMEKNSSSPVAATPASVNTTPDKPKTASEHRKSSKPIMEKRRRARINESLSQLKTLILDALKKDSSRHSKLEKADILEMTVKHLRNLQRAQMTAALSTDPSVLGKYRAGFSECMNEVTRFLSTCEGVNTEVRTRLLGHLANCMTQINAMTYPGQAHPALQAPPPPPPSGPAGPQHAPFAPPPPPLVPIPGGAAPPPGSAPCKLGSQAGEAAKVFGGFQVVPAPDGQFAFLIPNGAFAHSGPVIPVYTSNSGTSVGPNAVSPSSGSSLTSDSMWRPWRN
Nature of the assay: Inhibition of Cy3-labeled mouse recombinant Hes1 (3-281) dimer formation expressed in Escherichia coli by microplate-based assay.

Assay [2] has as its target T2, Transcription factor HES-1 (Mus musculus) (UniProt P35428).
T2 sequence (whole entry): T1 sequence (P35428 whole entry)
The following applies: C3H 10T1/2, 50 uM.
Description: Inhibition of mouse Hes1-mediated suppression of basic helix-loop-helix activator genes in C3H10T1/2 cells at 50 uM by luciferase transactivation assay

The target of assay [3] is T2, Transcription factor HES-1 (Mus musculus). Put plainly: Inhibition of Cy3-labeled mouse recombinant Hes1 (3-281) dimer formation expressed in Escherichia coli at 100 uM by microplate-based assay.

With `COc1cc([C@@H]2c3c(cc(OC)c(O)c3OC)C[C@H](CO)[C@H]2CO[C@@H]2OC[C@@H](O)[C@H](O)[C@H]2O)cc(OC)c1O` [NUDIPOSIDE], the IC50 in assay [1] worked out at 9.6 µM.
For the compound `CCCC(=O)/C=C/C1=C(O)C(=O)c2cc(O)c(O)cc2C1=O` [LINDBLADIONE], in assay [1], the IC50 stood at 4.1 µM. Moreover, the inhibition in assay [2] is 60%.
Consider `C/C=C1/[C@H]2OC=C(C(=O)O)[C@H]1CC(=O)OC[C@H](c1ccc(O)c(O)c1)OC[C@H]1O[C@@H](O2)[C@H](O)[C@@H](O)[C@@H]1O`, for which the IC50 in assay [1] was determined as 7.8 µM.
In the case of `COc1cc([C@H]2c3c(cc(OC)c(O)c3OC)C[C@@H](CO)[C@@H]2CO[C@@H]2OC[C@@H](O)[C@H](O)[C@H]2O)cc(OC)c1O` [LYONISIDE], in assay [1], the IC50 amounted to 48.1 µM.
On to `O=C1NCc2c1c1c3ccccc3[nH]c1c1[nH]c3ccccc3c21`, for which, in assay [3], the inhibition entry is “inactive”.
With `COC(=O)c1[nH]c(C(=O)OC)c(-c2c[nH]c3ccccc23)c1-c1c[nH]c2ccccc12`, in assay [3], the inhibition result is “inactive”.
Consider `COC(=O)c1[nH]c(C(=O)OC)c(-c2c[nH]c3ccc(O)cc23)c1-c1c[nH]c2ccccc12` [LYCOGARUBIN B], for which the IC50 in assay [1] turned out to be 16.5 µM.
For `O=C(O)c1[nH]c(C(=O)O)c(-c2c[nH]c3ccccc23)c1-c1c[nH]c2ccccc12` [LYCOGALIC ACID A], the IC50 in assay [1] came to 6 µM. The same compound registered an inhibition in assay [2] of 60%.
Take `COC(=O)c1[nH]c(C(=O)O)c(-c2c[nH]c3ccccc23)c1-c1c[nH]c2ccccc12`: the inhibition result in assay [3] is “inactive”.
